According to article PMC5390315 (Scientific Reports, 2017):
“And” between values parts separate entries of the source, which are not always exact repeats. Equal values may be shown once.

Tests used:
HT-29 = test: Antiproliferative MTT assay, HT-29; assay type: cell-based, human; conditions: Homo sapiens, HT-29, 72 h, mean ± SE
Method: (§1) Human T-cell leukemia (Jurkat) and human B-cell leukemia (SEM and RS4;11) cells were grown in RPMI-1640 medium (Gibco, Milano, Italy). Breast adenocarcinoma (MCF-7), human cervix carcinoma (HeLa), human lung adenocarcinoma (A549) and human colon adenocarcinoma (HT-29) cells were grown in DMEM medium (Gibco, Milano, Italy), all supplemented with 115 units/mL penicillin G (Gibco, Milano, Italy), 115 μg/mL streptomycin (Invitrogen, Milano, Italy), and 10% fetal bovine serum (FBS; Invitrogen, Milano, Italy). Stock solutions (10 mM) of the different compounds were obtained by dissolving them in DMSO. Individual wells of a 96-well tissue culture microtiter plate were inoculated with 100 μL of complete medium containing 8 × 10^3 cells. The plates were incubated at 37 °C in a humidified 5% CO2 incubator for 18 h prior to the experiments. After medium removal, 100 μL of fresh medium containing the test compound at different concentrations was added to each well in triplicate and incubated at 37 °C for 72 h. The percentage of DMSO in the medium never exceeded 0.25%. This was also the maximum DMSO concentration in all cell-based assays described below.

RS 4;11 = test: Antiproliferative MTT assay, RS 4;11; assay type: cell-based, human; conditions: Homo sapiens, RS4-11, 72 h, mean ± SE
Method: as §1

SEM cells = test: Antiproliferative MTT assay, SEM; assay type: cell-based, human; conditions: Homo sapiens, 72 h, mean ± SE
Method: as §1

HUVECs [1] = test: Cytotoxicity in HUVECs; assay type: cell-based; conditions: Homo sapiens, HUVEC; primary HUVECs
Method: (§2) HUVECs were prepared from human umbilical cord veins, as previously described. The adherent cells were maintained in M200 medium supplemented with LSGS (Low Serum Growth Supplement), containing FBS, hydrocortisone, hEGF, bFGF, heparin, gentamycin/amphotericin (Life Technologies, Monza, Italy). Once confluent, the cells were detached by a trypsin–EDTA solution and used in experiments from the first to sixth passages.

bovine brain tubulin = test: Inhibition of tubulin polymerization; assay type: biochemical; conditions: tubulin at 10 μM; read-out: Tubulin assembly IC50 ± S.D
Method: (§3) To evaluate the effect of the compounds on tubulin assembly in vitro[41], varying concentrations of compounds were preincubated with 10 μM bovine brain tubulin in 0.8 M monosodium glutamate (pH adjusted to 6.6 with HCl in a 2.0 M stock solution) at 30 °C and then cooled to 0 °C. After addition of 0.4 mM GTP, the mixtures were transferred to 0 °C cuvettes in a recording spectrophotometer and warmed to 30 °C. Tubulin assembly was followed turbidimetrically at 350 nm. […] The capacity of the test compounds to inhibit colchicine binding to tubulin was measured as described, except that the reaction mixtures contained 1 μM tubulin, 5 μM [^3H]colchicine and 1 or 5 μM test compound.

tubulin = test: Inhibition of [3H]colchicine binding to tubulin; conditions: tubulin 1 μM, [3H]colchicine 5 μM
Method: as §3

HeLa cells [2] = test: Mitotic cells by p-histone H3/PI flow cytometry; assay type: cell-based, human; conditions: 100 nM, 24 h, untreated 1.3%
HUVECs [3] = test: HUVEC scratch wound motility assay; assay type: cell-based, human; conditions: 100 nM, 6 h and 24 h
Method: as §2
The motility assay for HUVECs was based on “scratch” wounding of a confluent monolayer. Briefly, HUVECs (1x10^5) were seeded onto 6-well plates coated with 0.1% collagen type I (BD Biosciences, Italy) in complete medium until a confluent monolayer was formed. The cells were wounded using a pipette tip, and wells were washed with PBS to remove undetached cells. Then, the cells were treated with the test compounds, and, at different times from the scratch, the cells were photographed under a light microscope. At all indicated time points, the wound width was measured in four areas and compared with the initial width.

HeLa cells [4] = test: Western blot analysis of cell cycle and apoptosis proteins; assay type: cell-based, human
Method: HeLa cells were incubated in the presence of 4i and, after different times, were collected, centrifuged, and washed two times with ice cold phosphate buffered saline (PBS). The pellet was then resuspended in lysis buffer. After the cells were lysed on ice for 30 min, lysates were centrifuged at 15000× g at 4 °C for 10 min. The protein concentration in the supernatant was determined using the BCA Protein Assay (Pierce, Italy). Equal amounts of protein (10 μg) were resolved using sodium dodecyl sulfate-polyacrylamide gel electrophoresis (SDS-PAGE) (Criterion Precast, BioRad, Italy) and transferred to a PVDF Hybond-P membrane (GE Healthcare). Membranes were blocked with a bovine serum albumin solution (5% in Tween PBS 1X), the membranes being gently rotated overnight at 4 °C. Membranes were then incubated with primary antibodies against caspase-9, PARP, cdc25c, p-H2AX^Ser139, cyclin B, p-cdc2^Tyr15 (all from Cell Signaling) or β-actin (Sigma-Aldrich) for 2 h at room temperature. Membranes were next incubated with peroxidase labeled secondary antibodies for 60 min. All membranes were visualized using ECL Select (GE Healthcare), and images were acquired using an Uvitec-Alliance imaging system (Uvitec, Cambridge, UK). To ensure equal protein loading, each membrane was stripped and reprobed with anti-β-actin antibody.

CCOc1ccc(-c2oc(C)nc2-c2cc(OC)c(OC)c(OC)c2)cc1 [Compound 4i, 4-(3,4,5-Trimethoxyphenyl)-5-(4-ethoxyphenyl)-2-methyloxazole]
IC50 (HT-29): 20.2 ± 8.8 nM
IC50 (RS 4;11): 2.1 ± 0.2 nM
IC50 (SEM cells): 6.1 ± 2.3 nM
IC50 (HUVECs [1]): > 100000 nM
IC50 (bovine brain tubulin): 560 ± 100 nM
Colchicine binding % inhibition ± S.D, 1 μM drug (tubulin; 1 μM drug): 62 ± 0.4%
Colchicine binding % inhibition ± S.D, 5 μM drug (tubulin; 5 μM drug): 82% and 86 ± 1%
percentage of mitotic cells (p-histone H3) (HeLa cells [2]): ~46%
HUVEC cell migration (wound healing) (HUVECs [3]): significantly reduced
expression of Mcl-1 (HeLa cells [4]; 100 nM): only slightly decreased
total cdc25c expression (HeLa cells [4]; 100 nM, 24 and 48 h): reduced
XIAP expression (HeLa cells [4]; 24 and 48 h): significantly reduced
cyclin B1 expression (HeLa cells [4]; 24 and 48 h, concentration dependent): marked increase
PARP cleavage (HeLa cells [4]; 50 or 100 nM, 24 and 48 h): appearance of its cleavage fragments
phosphorylation of γH2A.X (Ser139) (HeLa cells [4]; 48 h): great increase
expression of phosphorylated cdc2 (HeLa cells [4]; most noticeable at 24 h, 100 nM): decreased
